Values of other authors as cited in US9180195B2, “Controlled release gels” (Nano Fiber Matrices B.V., priority 2005, dated 2015).

Conditions: for time to complete release from LMWG gel: from gels of N,N′-dibenzoyl-L-cystine (DBC)

Structure (SMILES)	initial release rate relative to AQ (from gels of DBC)	time to complete release from LMWG gel
Oc1ccc2ccccc2n1 [HQ, 2-hydroxyquinoline]	approximately seven	approximately 15 min
Nc1cccc2cccnc12 [AQ, 8-aminoquinoline]		~1 h
